Results from ChEMBL document CHEMBL5260845, “Flavone-based arylamides as potential anticancers: Design, synthesis and in vitro cell-based/cell-free evaluations” (2020).

Key:
Type in all cases: functional
[1] = system: BT-549; assay: Antiproliferative activity against triple negative human BT-549 cells assessed as inhibition of cell growth at 10 uM by SRB assay relative to control
[2] = system: T47D; assay: Antiproliferative activity against human T47D cells assessed as inhibition of cell growth at 10 uM by SRB assay relative to control
[3] = system: MDA-MB-231; assay: Antiproliferative activity against human MDA-MB-231 cells assessed as inhibition of cell growth at 10 uM by SRB assay relative to control
[4] = system: MCF7; assay: Antiproliferative activity against estrogen receptor positive human MCF7 cells assessed as inhibition of cell growth at 10 uM by SRB assay relative to control

SMILES: CN(Cc1cnc2nc(N)nc(N)c2n1)c1ccc(C(=O)N[C@@H](CCC(=O)O)C(=O)O)cc1 [METHOTREXATE]
- inhibition at 10 µM [1]: 53.1%
- inhibition at 10 µM [2]: 53.8%
- inhibition at 10 µM [3]: 40.1%
- inhibition at 10 µM [4]: 82.8%
